Assay results from US5783703A, “Sulfur-containing compounds method for their use and prodction” (Lederle (Japan), Ltd., priority 1993, dated 1998).
≈ marks a conversion by molar mass, not a printed value. Like-named read-outs stand apart in the source and are kept apart here.

What was measured:
S. marcescens = test: Antibacterial activities against clinically isolated microorganism; type: cell-based; conditions: Serratia marcescens, 27 strains clinically isolated in Japan
Protocol: (§1) The following strains clinically isolated freshly in Japan were used in this test.
S. marcescens 27 strains
(§2) 2. The test was carried out by the agar plate dilution method in accordance with the standard method of The Japanese Chemotherapy Society. The minimum inhibitory concentration (MIC) was determined in substantially the same manner as the test procedures described in Test I.

S. epidermidis = test: as above; type: cell-based; conditions: Staphylococcus epidermidis, 23 strains clinically isolated in Japan
Protocol: as §1, §2

K. pneumoniae = test: as above; type: cell-based; conditions: Klebsiella pneumoniae, 23 strains clinically isolated in Japan
Protocol: as §1, §2

E. faecalis = test: as above; type: cell-based; conditions: Enterococcus faecalis, read-out: MIC50 against clinically isolated microorganism
Protocol: as §1, §2

E. cloacae = test: as above; type: cell-based; conditions: Enterobacter cloacae, 14 strains clinically isolated in Japan
Protocol: as §1, §2

MRSA = test: as above; type: cell-based; conditions: Staphylococcus aureus, read-out: MIC50 against clinically isolated microorganism
Protocol: as §1, §2

S. schottmuelleri 8006 = test: Antibacterial test, agar plate dilution method (MIC), standard strains; type: cell-based; conditions: MH agar, 37° C., 18 hours
Protocol: (§3) The antibacterial activities were tested by an agar plate dilution method in accordance with the standard method of The Japanese Chemotherapy Society [Chemotherapy, Vol. 29, 76-79 (1981)].
(§4) A Mueller-Hinton (MH) agar liquid medium of a test microorganism was cultured overnight at 37° C. and the resultant culture medium was diluted with a buffered saline gelatin (BSG) solution to contain approximately 10^6 cells of the test microorganisms per milliliter, and then the diluted solution was inoculated with a microplanter at the rate of approximately 5 microliters on a MH agar medium containing a test compound. This medium was then incubated at 37° C. for 18 hours. The minimum inhibitory concentration (MIC) is determined as a minimum concentration in which no test microorganism could grow. It is noted here that the test organisms used were all standard strains.

P. mirabilis IFO 3849 = test: as above; type: cell-based; conditions: Proteus mirabilis, IFO3849, MH agar, 37° C., 18 hours
Protocol: as §3, §4

P. vulgaris HX-19 = test: as above; type: cell-based; conditions: Proteus vulgaris, HX19, MH agar, 37° C., 18 hours
Protocol: as §3, §4

S. paratyphi 1015 = test: as above; type: cell-based; conditions: Salmonella enterica, 18 h
Protocol: as §3, §4

E. coli NIHJ JC-2 = test: as above; type: cell-based; conditions: Escherichia coli, NIHJJC2, MH agar, 37° C., 18 hours
Protocol: as §3, §4

S. aureus FDA209P JC-1 = test: as above; type: cell-based; conditions: Staphylococcus aureus, MH agar, 37° C., 18 hours
Protocol: as §3, §4

M. luteus ATCC 9341 = test: as above; type: cell-based; conditions: Micrococcus luteus, ATCC9341, MH agar, 37° C., 18 hours
Protocol: as §3, §4

B. subtilis ATCC 6633 = test: as above; type: cell-based; conditions: Bacillus subtilis, ATCC6633, MH agar, 37° C., 18 hours
Protocol: as §3, §4

S. marcescens IAM 1184 = test: as above; type: cell-based; conditions: Serratia marcescens, IAM1184, MH agar, 37° C., 18 hours
Protocol: as §3, §4

E. coli K-12 C600 = test: as above; type: cell-based; conditions: Escherichia coli, K12C600, MH agar, 37° C., 18 hours
Protocol: as §3, §4

P. rettgeri IFO 3850 = test: as above; type: cell-based; conditions: Providencia rettgeri, IFO3850, MH agar, 37° C., 18 hours
Protocol: as §3, §4

S. pyogenes Cook = test: as above; type: cell-based; conditions: Streptococcus pyogenes, MH agar, 37° C., 18 hours
Protocol: as §3, §4

P. vulgaris OX-19 = test: as above; type: cell-based; conditions: Proteus vulgaris, OX19, MH agar, 37° C., 18 hours
Protocol: as §3, §4

M. morganii IFO 3848 = test: as above; type: cell-based; conditions: Morganella morganii, IFO3848, MH agar, 37° C., 18 hours
Protocol: as §3, §4

S. typhi 901 = test: as above; type: cell-based; conditions: Salmonella enterica, 18 h
Protocol: as §3, §4

E. cloacae 963 = test: as above; type: cell-based; conditions: Enterobacter cloacae, MH agar, 37° C., 18 hours
Protocol: as §3, §4

E. aerogenes ATCC 13048 = test: as above; type: cell-based; conditions: Klebsiella aerogenes, ATCC13048, MH agar, 37° C., 18 hours
Protocol: as §3, §4

S. enteritidis G14 = test: as above; type: cell-based; conditions: Salmonella enterica, MH agar, 37° C., 18 hours
Protocol: as §3, §4

K. pneumoniae PCI-602 = test: as above; type: cell-based; conditions: Klebsiella pneumoniae, PCI602, MH agar, 37° C., 18 hours
Protocol: as §3, §4

S. aureus Terajima = test: as above; type: cell-based; conditions: Staphylococcus aureus, MH agar, 37° C., 18 hours
Protocol: as §3, §4

S. aureus MS353 = test: as above; type: cell-based; conditions: Staphylococcus aureus, MH agar, 37° C., 18 hours
Protocol: as §3, §4

S. typhimurium 11D971 = test: as above; type: cell-based; conditions: Salmonella enterica, MH agar, 37° C., 18 hours
Protocol: as §3, §4

[1] = In situ absorption from rat intestinal loop; type: in vivo, rats of Wistar strain; conditions: rat jejunal loop, 20 mg/kg
Protocol: 7-week-old male rats of Wistar strain were used after fasting overnight. After anesthetizing the animals with ether, the intestine was exteriorized and an acute loop of 30 cm length was prepared from the upper part of jejunum by ligature of both ends. 0.2% physiological saline solutions of the test compounds were injected at a dose of 20 mg/kg into the loop with a syringe, and the loop was returned. About 0.4 ml blood was taken from the vena jugularis at 10, 30, 60 and 120 minutes after dosing.

[2] = Oral absorption study in mice; type: in vivo, mice of ddY strain; conditions: 100 mg/kg
Protocol: 5-week-old male mice of ddY strain were used after fasting overnight. The test compounds in 1% physiological saline solution at a dose of 100 mg/kg were administered orally to a group of 2 mice. Blood was taken from the vena jugularis at 15, 30, 60 and 120 minutes after dosing.

[3] = Storage stability of the crystal at room temperature; type: physicochemical; conditions: dehumidified state, one month
Text: The 3-mercapto-1-(1,3-thiazolin-2-yl)azetidine hydrochloride (8) in the form of crystal obtained in the above Example 6 was left still in dehumidified state at a room temperature for one month.

[4] = plasma, for (32) and (33) shown as Compound (28)
[5] = 28 strains clinically isolated in Japan
[6] = mouse, plasma, for (32) and (33) shown as Compound (28)
[7] = only deesterified Compound (28) detected

SMILES	MIC50 (S. marcescens) [µg/mL]	MIC50 (S. epidermidis) [µg/mL]	MIC50 (K. pneumoniae) [µg/mL]	MIC50 (E. faecalis) [µg/mL]	MIC50 (E. cloacae) [µg/mL]	MIC (S. schottmuelleri 8006) [µg/mL]	MIC (P. mirabilis IFO 3849) [µg/mL]	MIC (P. vulgaris HX-19) [µg/mL]	MIC (S. paratyphi 1015) [µg/mL]	MIC (E. coli NIHJ JC-2) [µg/mL]	MIC (S. aureus FDA209P JC-1) [µg/mL]	MIC (M. luteus ATCC 9341) [µg/mL]	MIC (B. subtilis ATCC 6633) [µg/mL]	MIC (S. marcescens IAM 1184) [µg/mL]	MIC (E. coli K-12 C600) [µg/mL]	MIC (P. rettgeri IFO 3850) [µg/mL]	MIC (S. pyogenes Cook) [µg/mL]	MIC (P. vulgaris OX-19) [µg/mL]	MIC (M. morganii IFO 3848) [µg/mL]	MIC (S. typhi 901) [µg/mL]	also measured
CC(C)(O/N=C(\C(=O)N[C@@H]1C(=O)N2C(C(=O)[O-])=C(C[n+]3ccccc3)CS[C@H]12)c1csc(N)n1)C(=O)O [CAZ, ceftazidime]	0.39 (≈ 0.714 µM)	12.5 (≈ 22.9 µM)	0.2 (≈ 0.366 µM)	25 (≈ 45.7 µM)	1.56 (≈ 2.85 µM)	–	–	–	–	–	–	–	–	–	–	–	–	–	–	–	MIC50 (MRSA): 100 µg/mL (≈ 183 µM)
C[C@@H](O)[C@H]1C(=O)N2C(C(=O)O)=C(SC3CN(C4=NCCS4)C3)[C@H](C)[C@H]12 [Compound (28), (1R,5S,6S)-2-[1-(thiazolin-2-yl)azetidin-3-yl]thio-6-[(R)-1-hydroxyethyl]-1-methyl-carbapen-2-em-3-carboxylic acid]	0.2 (≈ 0.522 µM)	0.39 (≈ 1.02 µM)	0.025 (≈ 0.0652 µM)	0.39 (≈ 1.02 µM)	0.1 (≈ 0.261 µM)	0.025 (≈ 0.0652 µM)	0.39 (≈ 1.02 µM)	0.1 (≈ 0.261 µM)	0.05 (≈ 0.13 µM)	0.013 (≈ 0.0339 µM)	0.013 (≈ 0.0339 µM)	0.2 (≈ 0.522 µM)	0.025 (≈ 0.0652 µM)	0.05 (≈ 0.13 µM)	0.1 (≈ 0.261 µM)	0.39 (≈ 1.02 µM)	≤ 0.006	0.1 (≈ 0.261 µM)	0.39 (≈ 1.02 µM)	≤ 0.006	MIC (E. cloacae 963): 0.05 µg/mL (≈ 0.13 µM); MIC (E. aerogenes ATCC 13048): 0.1 µg/mL (≈ 0.261 µM); MIC (S. enteritidis G14): 0.39 µg/mL (≈ 1.02 µM); MIC (K. pneumoniae PCI-602): 0.013 µg/mL (≈ 0.0339 µM); MIC (S. aureus Terajima): ≤ 0.006 µg/mL; MIC (S. aureus MS353): ≤ 0.006 µg/mL; MIC (S. typhimurium 11D971): 0.025 µg/mL (≈ 0.0652 µM); AUC(0-t) at 2 h [1, 4]: 1000 ng·h/mL; Cmax [1, 4]: 800 ng/mL; MIC50 (MRSA; [5]): 0.78 µg/mL (≈ 2.03 µM); AUC(0-t) at 2 h [2, 6]: 5000 ng·h/mL; Cmax [2, 6]: 3500 ng/mL
COCOC[C@@H]1CSC(N2CC(SC3=C(C(=O)O)N4C(=O)[C@H]([C@@H](C)O)[C@H]4[C@H]3C)C2)=N1 [Compound (31), (1R,5S,6S)-2-[1-((4R)-methoxymethyloxymethyl-1,3-thiazolin-2-yl)azetidin-3-yl]thio-6-[(R)-1-hydroxyethyl]-1-methyl-carbapen-2-em-3-carboxylic acid]	–	–	–	–	–	0.2 (≈ 0.437 µM)	0.78 (≈ 1.7 µM)	0.39 (≈ 0.852 µM)	0.05 (≈ 0.109 µM)	0.05 (≈ 0.109 µM)	0.05 (≈ 0.109 µM)	0.2 (≈ 0.437 µM)	0.025 (≈ 0.0546 µM)	0.39 (≈ 0.852 µM)	0.2 (≈ 0.437 µM)	6.25 (≈ 13.7 µM)	≤ 0.006	0.1 (≈ 0.219 µM)	0.2 (≈ 0.437 µM)	0.05 (≈ 0.109 µM)	MIC (E. cloacae 963): 0.2 µg/mL (≈ 0.437 µM); MIC (E. aerogenes ATCC 13048): 0.39 µg/mL (≈ 0.852 µM); MIC (S. enteritidis G14): 0.2 µg/mL (≈ 0.437 µM); MIC (K. pneumoniae PCI-602): 0.013 µg/mL (≈ 0.0284 µM); MIC (S. aureus Terajima): ≤ 0.006 µg/mL; MIC (S. aureus MS353): 0.025 µg/mL (≈ 0.0546 µM); MIC (S. typhimurium 11D971): 0.1 µg/mL (≈ 0.219 µM)
CC(OC(=O)OC1CCCCC1)OC(=O)C1=C(SC2CN(C3=NCCS3)C2)[C@H](C)[C@@H]2[C@@H]([C@@H](C)O)C(=O)N12 (stereo partly drawn) [Compound (33), 1-[(cyclohexyloxy)carbonyloxy] ethyl (1R,5S,6S)-2-[1-(1,3-thiazolin-2-yl)azetidin-3-yl]thio-6-[(R)-1-hydroxyethyl]-1-methylcarbapen-2-em-3-carboxylate]	–	–	–	–	–	–	–	–	–	–	–	–	–	–	–	–	–	–	–	–	plasma level of the administered ester itself [1, 7]: undetectable; plasma level of the administered ester itself [2, 7]: undetectable
C[C@@H](O)[C@H]1C(=O)N2C(C(=O)O)=C(SCCN=CN)C[C@H]12 [Imipenem, imipenem]	1.56 (≈ 5.21 µM)	0.2 (≈ 0.668 µM)	0.2 (≈ 0.668 µM)	0.78 (≈ 2.61 µM)	0.2 (≈ 0.668 µM)	–	–	–	–	–	–	–	–	–	–	–	–	–	–	–	MIC50 (MRSA; [5]): 3.13 µg/mL (≈ 10.5 µM)
Cl.SC1CN(C2=NCCS2)C1 [compound (8), 3-mercapto-1-(1,3-thiazolin-2-yl)azetidine hydrochloride]	–	–	–	–	–	–	–	–	–	–	–	–	–	–	–	–	–	–	–	–	purity after storage (storage stability) [3]: did not change at all
